Square brackets hold non-standard residues; d marks the D form. Side chains are listed from the residue outwards. Peptide text beside a SMILES is read from it. * marks the point of attachment. NMeY = CN[C@@H](Cc1ccc(O)cc1)C(=O)O; Palmitoyl = CCCCCCCCCCCCCCCC(=O)*; αMeF = C[C@](N)(Cc1ccccc1)C(=O)O; Iva = CC[C@](C)(N)C(=O)O; Aib = CC(C)(N)C(=O)O
Assays:
[1] = test system: Male DIO C57BL/6J mice; test: Repeated dosing study in diet-induced obese (DIO) mice; format: in vivo, mouse; conditions: for ALT / AST / Insulin / TC / TG: plasma, mean ± SD
Protocol: Male DIO C57BL/6J mice (40 weeks old) were divided into the groups based on the data of body weight, food intake, and plasma parameters. Vehicle or the compounds (P41) of Example 41 was subcutaneously administered once a day for 4 weeks. Body weight and food intake were monitored during the study. Compounds were dissolved in 10% DMSO/saline. After the study, blood was collected and plasma parameters were measured. At day 29, body composition was measured by EchoMRI (Hitachi Aloka Medical, Ltd., Japan) and the animals were sacrificed. For hematoxylin and eosin (HE) staining, livers were dissected from DIO mice after 4 weeks drug administration described in the above body-weight studies section. Livers were fixed in 4% paraformaldehyde, embedded in paraffin, sectioned, and stained with HE. After processing, the sections were mounted and then examined via light microscopy (NanoZoomer, Hamamatsu Photonics).
Total RNA was isolated from the liver using QIAzol reagent (QIAGEN Japan, Tokyo, Japan) and cDNA was synthesized using High-Capacity cDNA Reverse Transcription Kit (Applied Biosystems, CA, USA). Quantitative RT-PCR was performed using the ABI Prism 7900 Sequence Detection System with EXPRESS qPCR Super Mix (Thermo Fisher Scientific Inc. MA. USA). Mixtures of primers and probes (Applied Biosystems) were used for the detection of mRNA (Table 4). The expression levels were normalized to those of beta-actin and Peptidyl isomerase A.
(§1) Plasma glucose, triglyceride (TG), total cholesterol (TC), aspartate aminotransferase (AST), and alanine aminotransferase (ALT) were analyzed by Autoanalyzer 7180 (Hitachi High-Technologies Corporation, Japan). Blood glycated hemoglobin (GHb) was measured with the automated GHb analyzers (HLC-723G8, Tosoh, Tokyo, Japan). Liver triglyceride content was measured as follows: a piece of tissue was homogenized in saline and lipid was extracted by the addition of hexane:isopropanol (3:2) solution. The lipid phase was collected, dried and then dissolved in isopropanol. The concentration of triglyceride was measured by Triglyceride E-test (Wako Pure Chemical Industries, Ltd, Japan) and triglyceride content per g liver was calculated. Plasma insulin was measured with ELISA Assay kit (Shibayagi Co. Ltd., Japan).

[2] = test system: Male ob/ob mice; test: Repeated dosing study in ob/ob mice; format: in vivo, mouse; conditions: for ALT / AST / TC / TG: plasma, mean ± SD
Protocol: Male ob/ob mice (9 weeks old) were divided into the groups based on the data of body weight, food intake, and plasma parameters. Vehicle or P41 was subcutaneously administered once a day for 4 weeks. Body weight and food intake were monitored during the study. Compounds were dissolved in 10% DMSO/saline. After the study, blood was collected and plasma parameters were measured. At day 29, the animals were sacrificed.
as §1

[3] = test system: male C57BL/6J mouse; test: Evaluation of feeding suppressive action in mice; format: in vivo; conditions: 30 nmol/kg s.c. once a day for 3 days; 3-days cumulative food consumption vs solvent control
How it was run: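 Male C57BL/6J mice, 8-9 weeks, ad libitum fed, given compound (30 or 100 nmol/2 mL in 10% DMSO saline) s.c. at 2 mL/kg once daily for 3 days. Cumulative 3-day food consumption measured by weighing; suppression rate (%) calculated relative to vehicle controls.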

[4] = test system: Male C57BL/6J mice; test: Conditioned taste aversion (CTA) test; format: in vivo, mouse; conditions: 3 nmol/kg s.c.
Protocol: Male C57BL/6J (9 weeks old) mice were habituated to time-restricted bottled water supply (2-3 hours/day) and subcutaneous injection of saline for 1 week. Mice were divided into the groups based on the data of body weight and water intake. CTA test was performed according to the following protocol. On day 1 for the first conditioning, mice were given 0.1% sodium saccharin solution to drink for 3 hours. Ten-minutes after supplying the saccharin solution, vehicles, liraglutides and P41 were administered subcutaneously. […] On day 2, mice were given tap water for 3 hours and subcutaneous injection of saline after water supply. On day 3, the second conditioning was conducted as the same procedure used on day 1. On day 4, mice were given tap water for 3 hours without subcutaneous injection. On day 5, both tap water and saccharin solution were supplied to mice for 3 hours without subcutaneous injection and the intake of each fluid was measured. Saccharin preference ratio (%) was calculated according to the following equation: {(amount of saccharin intake)/(amount of saccharin intake+amount of water intake)}×100.

[5] = 3 nmol/kg s.c. once a day for 4 weeks
[6] = 10 nmol/kg s.c. once a day for 4 weeks
[7] = 30 nmol/kg s.c. once a day for 4 weeks
[8] = 3, 10 and 30 nmol/kg s.c. once a day for 4 weeks, dose-dependent
[9] = quantitative RT-PCR, liver, 4 weeks
[10] = 10, 30 and 100 nmol/kg s.c. once a day for 4 weeks
[11] = 100 nmol/kg s.c. once a day for 4 weeks

Question: `CCCCCCCCCCCCCCCC(=O)NCC(=O)NCC(=O)NCC(=O)NCC(=O)NCCCC[C@H](NC(=O)[C@H](CC(=O)O)NC(=O)[C@H](CO)NC(=O)[C@@H](NC(=O)[C@](C)(Cc1ccccc1)NC(=O)[C@@H](NC(=O)CNC(=O)[C@H](CCC(=O)O)NC(=O)C(C)(C)NC(=O)[C@H](Cc1ccc(O)cc1)NC)[C@@H](C)O)[C@@H](C)O)C(=O)N[C@@H](CO)C(=O)N[C@H](C(=O)NC(C)(C)C(=O)N[C@@H](CC(C)C)C(=O)N[C@@H](CCC(=O)O)C(=O)N[C@@H](CCCCN)C(=O)N[C@@H](CCC(N)=O)C(=O)N[C@@H](CCCNC(=N)N)C(=O)N[C@@H](CCC(N)=O)C(=O)N[C@@](C)(CC)C(=O)N[C@@H](CCC(=O)O)C(=O)N[C@@H](Cc1ccccc1)C(=O)N[C@H](C(=O)N[C@@H](CCCNC(=N)N)C(=O)N[C@@H](Cc1c[nH]cn1)C(=O)N[C@@H](CC(C)C)C(=O)N[C@@H](CC(C)C)C(=O)N[C@@H](CC(N)=O)C(=O)N[C@@H](CCCCN)C(=O)NC(C)(C)C(=O)N[C@H](C(=O)N[C@@H](CCCNC(=N)N)C(=O)N[C@@H](CCC(N)=O)C(=O)N[C@@H](CCCNC(=N)N)C(=O)N[C@@H](Cc1ccc(O)cc1)C(N)=O)[C@@H](C)O)C(C)C)[C@@H](C)CC` [Example 41] (H-[NMeY][Aib]EGT[αMeF]TSDK([Gly-Gly-Gly-Gly-Palmitoyl])SI[Aib]LEKQRQ[Iva]EFVRHLLNK[Aib]TRQRY-NH2) was tested. Which “decrease in body weight compared with vehicle group” value (from here on “decrease in body weight”) [1, 5] did it give?
Answer: 14.6%

Question: What about the “decrease in body weight” value [1, 6] of the same compound?
Answer: 30.0%

Question: And the “decrease in body weight” value [1, 7]?
Answer: 37.1%

Question: What about the “lean mass (EchoMRI)” value ([1]; 3, 10 and 30 nmol/kg s.c. once a day for 4 weeks) of the same compound?
Answer: subtle decrease

Question: And the “fat mass (EchoMRI)” value [1, 8]?
Answer: drastic decrease

Question: What about the “inguinal, mesenteric and epididymal fat pad weight” value [1, 8] of the same compound?
Answer: significantly decreased

Question: And the “liver TG content” value [1, 8]?
Answer: drastically decreased

Question: And the liver weight [1, 8]?
Answer: drastically decreased

Question: What about the ALT [1, 5] of the same compound?
Answer: 94.2 ± 32.3 U/L

Question: And the AST [1, 5]?
Answer: 170.0 ± 37.2 U/L

Question: What about the Insulin [1, 5] of the same compound?
Answer: 4.9 ± 2.9 ng/mL

Question: And the TC [1, 5]?
Answer: 253.6 ± 11.9 mg/dL

Question: And the TG [1, 5]?
Answer: 50.5 ± 16.2 mg/dL

Question: And the ALT [1, 6]?
Answer: 35.6 ± 9.7 U/L

Question: And the AST [1, 6]?
Answer: 88.8 ± 11.7 U/L

Question: And the Insulin [1, 6]?
Answer: 3.7 ± 2.7 ng/mL

Question: And the TC [1, 6]?
Answer: 189.5 ± 22.1 mg/dL

Question: And the TG [1, 6]?
Answer: 62.2 ± 16.1 mg/dL

Question: And the ALT [1, 7]?
Answer: 37.5 ± 7.7 U/L

Question: And the AST [1, 7]?
Answer: 90.2 ± 10.3 U/L

Question: What about the Insulin [1, 7] of the same compound?
Answer: 5.2 ± 2.1 ng/mL

Question: And the TC [1, 7]?
Answer: 173.2 ± 16.4 mg/dL

Question: And the TG [1, 7]?
Answer: 50.2 ± 6.6 mg/dL

Question: What about the “hepatic gene expression of inhibitor of fibrosis (MMP2)” value [1, 9] of the same compound?
Answer: tended to increase

Question: What about the “hepatic gene expression related to fibrosis (Timp1, Col1α) and inflammation (CCl2)” value [1, 9] of the same compound?
Answer: tended to decrease

Question: And the “hepatic lipid droplet, HE staining of liver slices” value ([1]; s.c. once a day for 4 weeks)?
Answer: Reduction of hepatic lipid droplet

Question: What about the GHb [2, 10] of the same compound?
Answer: significant decrease

Question: And the “body weight and cumulative food intake” value [2, 10]?
Answer: dose-dependent body weight and cumulative food intake reduction

Question: And the plasma glucose levels [2, 10]?
Answer: significant decrease

Question: What about the plasma insulin levels [2, 10] of the same compound?
Answer: Dose-dependent decrease

Question: And the “liver and mesenteric, epididymal, and inguinal adipose tissue weight, and liver TG content” value ([2]; 10, 30 and 100 nmol/kg s.c. once a day for 4 weeks, dose-dependent)?
Answer: decreased

Question: And the ALT [2, 6]?
Answer: 50.6 ± 23.8 U/L

Question: What about the AST [2, 6] of the same compound?
Answer: 82.3 ± 25.0 U/L

Question: What about the TC [2, 6] of the same compound?
Answer: 137.0 ± 12.7 mg/dL

Question: And the TG [2, 6]?
Answer: 52.4 ± 13.0 mg/dL

Question: What about the ALT [2, 7] of the same compound?
Answer: 38.3 ± 9.3 U/L

Question: And the AST [2, 7]?
Answer: 83.5 ± 21.5 U/L

Question: What about the TG [2, 7] of the same compound?
Answer: 51.6 ± 14.2 mg/dL

Question: And the ALT [2, 11]?
Answer: 41.6 ± 10.1 U/L

Question: And the AST [2, 11]?
Answer: 77.7 ± 13.1 U/L

Question: What about the TC [2, 11] of the same compound?
Answer: 136.8 ± 6.1 mg/dL

Question: What about the TG [2, 11] of the same compound?
Answer: 46.9 ± 12.9 mg/dL

Question: And the “Rate of feeding suppression (%)” value [3]?
Answer: −52.1%

Question: What about the “induction of conditioned taste aversion (emetic effects)” value [4] of the same compound?
Answer: did not induce CTA

Question: And the “Saccharin preference ratio (%)” value ([4]; two conditionings, mean ± SD)?
Answer: 76.8 ± 9.5%
